This assay concerns HT29 intrarenal xenograft, nude mice, tumor weight change. Briefly: NCI In Vivo Anticancer Drug Screen. Data for tumor model HT29;CX-1 Human Adenocarcinoma (MER+) (intrarenal inoculation) in NU/NU BALB/C (nude) mice. The note with it: endpoint: mean tumor weight change, higher = larger tumour. As to the method:
The antitumor activity of compounds was measured in mice bearing transplantable tumors. Survival or tumor size were measured and the results are expressed as the measurement made in the treated group (T) divided by the measurement made in the vehicle treated control group (C). The tumor model used in this assay is HT29;CX-1 Human Adenocarcinoma (MER+) (intrarenal inoculation) in NU/NU BALB/C (nude) mice

The mark [1] stands for this setting: dose: 1200.0 mg/kg/injection, schedule: Q04DX004 (sc), vehicle: saline with Tween-80.
Where [2] appears, read: dose: 200.0 mg/kg/injection, schedule: Q04DX004 (sc), vehicle: saline with Tween-80.
[3] abbreviates: dose: 100.0 mg/kg/injection, schedule: Q04DX004 (sc), vehicle: saline.
Where [4] appears, read: dose: 150.0 mg/kg/injection, schedule: Q04DX004 (sc), vehicle: saline with Tween-80.
[5] abbreviates: dose: 300.0 mg/kg/injection, schedule: Q04DX004 (sc), vehicle: saline with Tween-80.
[6] abbreviates: dose: 2400.0 mg/kg/injection, schedule: Q04DX004 (sc), vehicle: saline with Tween-80.
Where [7] appears, read: dose: 150.0 mg/kg/injection, schedule: Q04DX004 (sc), vehicle: saline.
[8] abbreviates: dose: 300.0 mg/kg/injection, schedule: Q04DX004 (sc), vehicle: saline.
Setting [9] is: dose: 25.0 mg/kg/injection, schedule: Q04DX004 (sc), vehicle: Klucel (hydroxypropylcellulose) (HPC).
[10] abbreviates: dose: 50.0 mg/kg/injection, schedule: Q04DX004 (sc), vehicle: Klucel (hydroxypropylcellulose) (HPC).
[11] abbreviates: dose: 300.0 mg/kg/injection, schedule: Q04DX004 (sc), vehicle: Klucel (hydroxypropylcellulose) (HPC).
[12] abbreviates: dose: 600.0 mg/kg/injection, schedule: Q04DX004 (sc), vehicle: Klucel (hydroxypropylcellulose) (HPC).
Where [13] appears, read: dose: 1200.0 mg/kg/injection, schedule: Q04DX004 (sc), vehicle: Klucel (hydroxypropylcellulose) (HPC).
Where [14] appears, read: dose: 200.0 mg/kg/injection, schedule: Q04DX004 (sc), vehicle: saline.
Setting [15] is: dose: 600.0 mg/kg/injection, schedule: Q04DX004 (sc), vehicle: saline with Tween-80.

Molecules are shown by their SMILES. Where “and” joins values, the source holds several entries; their conditions need not be identical. Identical values can stand only once. Results filed as inconclusive are left out.

For the compound `C[n+]1ccc2cc(N)c3c4ccccc4sc3c2c1`, the T/C by setting is: (dose: 12.5 mg/kg/injection, schedule: Q04DX004 (sc), vehicle: saline with Tween-80) 60 % of control; (dose: 25.0 mg/kg/injection, schedule: Q04DX004 (sc), vehicle: saline with Tween-80) 43 % of control.
As to `Cc1ccoc1`, the T/C is, setting by setting: (dose: 50.0 mg/kg/injection, schedule: Q01DX010 (ip), vehicle: saline with Tween-80) 92 % of control; (dose: 100.0 mg/kg/injection, schedule: Q01DX010 (ip), vehicle: saline with Tween-80) 63 % of control; (dose: 200.0 mg/kg/injection, schedule: Q01DX010 (ip), vehicle: saline with Tween-80) 90 % of control.
For the compound `CN(C)P(=O)(Oc1ccccc1)N(C)C`, under setting [1], the T/C is 78 % of control.
As to `Nc1nnc[se]1`, the T/C reads like this: under setting [2], 64 % of control; (dose: 400.0 mg/kg/injection, schedule: Q04DX004 (sc), vehicle: saline with Tween-80) 31 % of control; (dose: 800.0 mg/kg/injection, schedule: Q04DX004 (sc), vehicle: saline with Tween-80) 23 % of control.
Take `Oc1ccc(O)cc1`: the T/C under setting [3] was 106 % of control.
Regarding `FC(F)(F)c1nc2nc(Cl)c(Cl)nc2[nH]1`, the T/C runs as follows: (dose: 75.0 mg/kg/injection, schedule: Q04DX004 (sc), vehicle: saline with Tween-80) 112 % of control; under setting [4], 42 % of control; under setting [5], 71 % of control.
On to `C[C@H]1C[C@@H]2[C@H]([C@@H](O)C[C@@]3(C)[C@H]2CC[C@]3(O)C(=O)CO)[C@@]2(C)C=CC(=O)C=C12`, for which the T/C (dose: 200.0 mg/kg/injection, schedule: Q04DX004 (sc), vehicle: Klucel (hydroxypropylcellulose) (HPC)) was 14 % of control; the T/C (dose: 400.0 mg/kg/injection, schedule: Q04DX004 (sc), vehicle: Klucel (hydroxypropylcellulose) (HPC)) was 19 % of control; the T/C (dose: 800.0 mg/kg/injection, schedule: Q04DX004 (sc), vehicle: Klucel (hydroxypropylcellulose) (HPC)) is 29 % of control.
For the compound `NC(=S)N/N=C/c1ccc(O)cn1`, the T/C under setting [2] is 75 % of control.
Consider `C[C@]12CC[C@H](O)CC1=CC[C@@H]1[C@@H]2CC[C@]2(C)C(=O)CC[C@@H]12`, for which, under setting [6], the T/C was 73 % of control.
Regarding `CC1=C(O)C(=O)[C@@H]2O[C@@H]2C1=O`, the T/C (dose: 37.5 mg/kg/injection, schedule: Q04DX004 (sc), vehicle: saline) is 60 % of control.
Take `CN(N=O)C(=O)N[C@@H](C=O)[C@@H](O)[C@H](O)[C@H](O)CO`: the T/C by setting is: under setting [7], 111 % of control; under setting [8], 38 % of control.
Consider `CN(C)N=Nc1cccc(C(N)=O)c1`, for which the T/C was 91 % of control under setting [9]; 85 % of control under setting [10]; 123 % of control (dose: 100.0 mg/kg/injection, schedule: Q04DX004 (sc), vehicle: Klucel (hydroxypropylcellulose) (HPC)).
Turning to `CC1=C/C(O)CC(=O)Cc2nc(co2)C(=O)N2CCC=C2C(=O)OC(C(C)C)C(C)/C=C\C(=O)NC/C=C\1` (configuration not stated), the T/C by setting is: (dose: 150.0 mg/kg/injection, schedule: Q04DX004 (sc), vehicle: Klucel (hydroxypropylcellulose) (HPC)) 66 % of control; under setting [11], 92 % of control; under setting [12], 54 % of control; under setting [13], 85 % of control.
For the compound `Oc1ccc(CCl)c2cccnc12`, the T/C was 76 % of control (dose: 75.0 mg/kg/injection, schedule: Q04DX004 (sc), vehicle: saline); 110 % of control under setting [7]; 89 % of control under setting [8].
Take `CC(/C=C/c1ccccc1)=Nc1ccccc1`: the T/C runs as follows: under setting [1], 46 % of control; (dose: 1800.0 mg/kg/injection, schedule: Q04DX004 (sc), vehicle: saline with Tween-80) 54 % of control.
As to `COc1ccc2c(NCCCCCCCCNc3c4ccccc4nc4cc(OC)ccc34)c3ccccc3nc2c1`, the T/C (dose: 31.25 mg/kg/injection, schedule: Q04DX004 (sc), vehicle: suspension in saline) was 65 % of control; the T/C (dose: 62.5 mg/kg/injection, schedule: Q04DX004 (sc), vehicle: suspension in saline) is 72 % of control; the T/C (dose: 125.0 mg/kg/injection, schedule: Q04DX004 (sc), vehicle: suspension in saline) is 47 % of control; the T/C (dose: 250.0 mg/kg/injection, schedule: Q04DX004 (sc), vehicle: suspension in saline) was 73 % of control.
Consider `NC(=O)c1ccc[n+](Cc2c(Cl)cccc2Cl)c1`, for which the T/C is 93 % of control (dose: 25.0 mg/kg/injection, schedule: Q04DX004 (sc), vehicle: saline); 91 % of control (dose: 50.0 mg/kg/injection, schedule: Q04DX004 (sc), vehicle: saline); 205 % of control under setting [14].
For the compound `O=[N+]([O-])O.O=[N+]([O-])O.[NH-]C1CCCCC1[NH-].[Pt+2]` (configuration not stated), the T/C (dose: 0.5 mg/kg/injection, schedule: Q01DX010 (sc), vehicle: dextrose) is 87 % of control; the T/C (dose: 1.0 mg/kg/injection, schedule: Q01DX010 (sc), vehicle: dextrose) was 62 % of control; the T/C (dose: 2.0 mg/kg/injection, schedule: Q01DX010 (sc), vehicle: dextrose) was 36 % of control.
`O=S(CCCl)CCCl`: the T/C was 98 % of control under setting [9] and 64 % of control under setting [10].
In the case of `CCOC(=O)C1(c2ccccc2)C(=O)Oc2ccccc21` (configuration not stated), the T/C runs as follows: under setting [4], 83 % of control; under setting [5], 98 % of control; under setting [15], 117 % of control; under setting [1], 80 % of control.
Consider `COc1cccc2c1C(=O)c1c(O)c3c(c(O)c1C2=O)CC(O)(C(=O)CO)CC3OC1CC(N)C(O)C(C)O1` (configuration not stated), for which the T/C by setting is: (dose: 37.5 mg/kg/injection, schedule: Q04DX004 (sc), vehicle: water) 32 % of control and 53 % of control; (dose: 75.0 mg/kg/injection, schedule: Q04DX004 (sc), vehicle: water) 111 % of control and 117 % of control; (dose: 300.0 mg/kg/injection, schedule: Q04DX004 (sc), vehicle: water) 55 % of control and 68 % of control.
On to `COc1cc(C(=O)c2cocc2C(=O)c2ccc3c(c2)OCO3)cc(OC)c1OC`, for which the T/C was 103 % of control under setting [11]; 57 % of control under setting [12]; 89 % of control under setting [13]; 66 % of control (dose: 2400.0 mg/kg/injection, schedule: Q04DX004 (sc), vehicle: Klucel (hydroxypropylcellulose) (HPC)).
For `O=C(CN1CCOCC1)Nc1nc(-c2ccc(Cl)cc2)cs1`, the T/C reads like this: (dose: 50.0 mg/kg/injection, schedule: Q04DX004 (ip), vehicle: saline with Tween-80) 60 % of control; (dose: 100.0 mg/kg/injection, schedule: Q04DX004 (ip), vehicle: saline with Tween-80) 76 % of control; (dose: 200.0 mg/kg/injection, schedule: Q04DX004 (ip), vehicle: saline with Tween-80) 73 % of control; (dose: 400.0 mg/kg/injection, schedule: Q04DX004 (ip), vehicle: saline with Tween-80) 101 % of control; (dose: 800.0 mg/kg/injection, schedule: Q04DX004 (ip), vehicle: saline with Tween-80) 94 % of control.
Regarding `N[C@@H](Cc1ccc(N(CCCl)CCCl)cc1)C(=O)O`, the T/C runs as follows: (dose: 1.0 mg/kg/injection, schedule: Q01DX010 (sc), vehicle: saline) 28 % of control; (dose: 2.0 mg/kg/injection, schedule: Q01DX010 (sc), vehicle: saline) 3 % of control.
As for `C=CS(=O)(=O)c1ccccc1`, the T/C is 49 % of control (dose: 50.0 mg/kg/injection, schedule: Q01DX010 (sc), vehicle: saline) and 82 % of control (dose: 100.0 mg/kg/injection, schedule: Q01DX010 (sc), vehicle: saline).
For the compound `O=C(c1cccnc1)c1cc(-c2ccccn2)c(=O)n2ccccc12`, the T/C under setting [5] was 87 % of control, the T/C under setting [15] is 21 % of control, the T/C under setting [1] was 77 % of control and the T/C under setting [6] was 83 % of control.
Consider `Cc1nnc2ncccn12`, for which the T/C is 73 % of control and 84 % of control under setting [3]; 69 % of control and 84 % of control under setting [14]; 72 % of control and 76 % of control (dose: 400.0 mg/kg/injection, schedule: Q04DX004 (sc), vehicle: saline).
